Experimental data as given in BindingDB's records for doi:10.1021/jm00099a026 (Smithkline Beecham Pharmaceuticals, 1992).

Experiment: Inhibition of ADP-induced platelet aggregation in canine platelet-rich plasma

`CC(=O)N[C@@H](CS)C(=O)N[C@@H](CCCN=C(N)N)C(=O)NCC(=O)N[C@@H](CC(=O)O)C(=O)N[C@@H](C(N)=O)C(C)(C)S` and `CC(=O)N[C@@H](CS)C(=O)N[C@H](CCCN=C(N)N)C(=O)NCC(=O)N[C@@H](CC(=O)O)C(=O)N[C@H](C(N)=O)C(C)(C)S` are within 1.5-fold of each other in IC50: 4.12 µM for the first, 4.1 µM for the second.

Compared with `N=C(N)NCCC[C@@H]1NC(=O)[C@@H]2CCCN2C(=O)CNC(=O)[C@H]2CCCN2C(=O)[C@H](CC(=O)O)NC(=O)CNC1=O`, `N=C(N)NCCC[C@@H]1NC(=O)[C@@H]2CCCN2C(=O)[C@H]2CCCN2C(=O)CNC(=O)[C@H](CC(=O)O)NC(=O)CNC1=O` is 15-fold lower in IC50: 76.6 µM for the first, 5.26 µM for the second.

First: N=C(N)NCCC[C@@H]1NC(=O)[C@@H]2CCCN2C(=O)[C@@H](Cc2ccccc2)NC(=O)CNC(=O)[C@H](CC(=O)O)NC(=O)CNC1=O
Second: CN(C(=O)c1ccccc1S)[C@@H](CCCNC(=N)N)C(=O)NCC(=O)N[C@@H](CC(=O)O)C(=O)Nc1ccccc1S
The IC50 of the first is 200-fold higher: 17.7 µM for the first, 0.09 µM for the second.

First: CC(=O)N[C@@H](CS)C(=O)N(C)[C@H](CCCN=C(N)N)C(=O)NCC(=O)N[C@@H](CC(=O)O)C(=O)N[C@H](C(N)=O)C(C)(C)S
Second: CC(=O)N[C@@H](CS)C(=O)N(C)[C@@H](CCCN=C(N)N)C(=O)NCC(=O)N[C@@H](CC(=O)O)C(=O)N[C@H](C(N)=O)C(C)(C)S
The IC50 of the first is 5-fold higher: 1.79 µM for the first, 0.355 µM for the second.

First: CC(=O)N[C@@H](CS)C(=O)N[C@@H](CCCNC(=N)N)C(=O)NCC(=O)N[C@@H](CC(=O)O)C(=O)N[C@H](C(N)=O)C(C)(C)S
Second: C[C@H](NC(=O)[C@H](CS)NC(=O)[C@@H]1CCCN1C(=O)[C@H](CO)NC(=O)[C@H](CC(=O)O)NC(=O)CNC(=O)[C@H](CCCNC(=N)N)NC(=O)CNC(=O)[C@@H](NC(=O)CN)C(C)(C)S)C(=O)O
The IC50 of the first is 2-fold higher: 20.3 µM for the first, 10.1 µM for the second.
